Experimental data taken from patent US20050148553A1, “Use of tigecycline, alone, or in combination with rifampin to treat osteomyelitis and/or septic arthritis” (priority 2003, published 2005).
Converted amounts (≈) assume the structure as drawn. “And” between values parts separate entries of the source, which are not always exact repeats. Equal entries are not always repeated. Where two headings read alike, the source gives them in different places.

What was measured:
[1] = tested on: Acinetobacter baumannii; assay: Compassionate use study, osteomyelitis patient; type: in vivo, human; details: one human patient
Method: The patient was treated with meropenem and tobramycin. […] The patient was then treated with tigecycline for two months with either 50 mg every 12 hours or 50 mg every 24 hours.

[2] = Antibiotic levels in rabbit serum and bone by diffusion bioassay; type: in vivo, New Zealand white rabbits; details: infected rabbits; tigecycline 14 mg/kg, vancomycin 30 mg/kg twice daily
Method: Normal NZW rabbit serum (Fisher Scientific) and normal, uninfected rabbit tibia bone were used to generate standard curves for tigecycline (Wyeth-Ayerst Research, Pearl River, N.Y.), vancomycin (Abbott Laboratories, Chicago, Ill.), and rifampin (Merrell Pharmaceuticals Inc. Kansas, Mo.). Bioassays were performed with each drug to generate the standard curves for antibiotic concentration in serum and/or tibial bone.
The organism used for the bioassay was Bacillus cereus ATCC11778. Serum standards were prepared using two-fold serial dilutions with either antibiotic to yield concentrations of 25 μg/ml to 0.20 μg/ml drug in Normal NZW rabbit serum. Bone eluate standards were prepared for tigecycline by thoroughly cleaning noninfected rabbit tibias with 70% ethanol in a sterilized fume hood. Each tibia was broken into small chips of approximately 0.5 cm^2 using a grinder. The chips were placed into a sterile, 50 ml conical centrifuge tube and weighed. One milliliter of sterile, 0.9% normal saline was added for each gram of bone chips. The solution was thoroughly vortexed for two minutes. The resulting bone eluate was allowed to shake at 180 rpm in a cold room at 4° C., for 12 hours. The samples were centrifuged at 4000 rpm for 3 minutes prior to assay, to pellet the chips.
The diameter of the zone of growth inhibition around each well was measured, in millimeters. A standard curve was generated for tigecycline concentration in both serum and bone eluate and for vancomycin in serum by plotting the known antibiotic concentration against its resulting zone of inhibition measurement. […]
Serum samples were stored at −70° C. until the bioassay was performed. […] The diameter of the zone of growth inhibition around each well was measured and concentrations of tigecycline were extrapolated from the standard curve.
Peak and trough levels of antibiotic were determined for Groups 2 and 4 at 1 hour (peak) and 12 hour (trough) after the initial antibiotic administration. Antibiotic concentrations were determined by means of a bioassay. […]

[3] = tested on: methicillin-resistant S. aureus
Method: Preparation of the Infective Media: S. aureus was incubated overnight in Mueller Hinton Broth (Difco Laboratories, Detroit, Mich.) medium spiked with 40 μg/ml oxacillin, at 37° C. The bacterial concentration of the culture was adjusted to 10^7 CFU's/ml.
Rabbit Infection Procedure: New Zealand white rabbits (Ray Nicholl's Rabbitry, Lumberton, Tex.), eight to 12 weeks old and weighing 2.0 to 3.5 kg, were utilized for the study. After anesthesia was given, an 18-gauge needle was inserted percutaneously through the lateral aspect of the left tibial metaphysis into the intramedullary cavity. Next, 0.15 ml of 5% sodium morrhuate (American Regent Laboratories, Inc., Shirley, N.Y.), 0.1 ml of S. aureus (10^7 CFU/ml), and 0.2 ml of sterile, normal saline, 0.9%, were injected sequentially.
Group 1 (control group): infected but left untreated for the duration of the study. Group 2: rabbits were treated for 4 weeks with subcutaneous vancomycin at 30 mg/kg twice daily. Group 3: rabbits were treated for 4 weeks with subcutaneous vancomycin at 30 mg/kg twice daily plus oral rifampin at 40 mg/kg twice daily in 0.5% methylcellulose. Group 4: rabbits were treated for 4 weeks with subcutaneous tigecycline at 14 mg/kg twice daily. Group 5: rabbits were treated for 4 weeks with subcutaneous tigecycline at the same dose as in the rabbits in Group 4, plus oral rifampin at 40 mg/kg twice daily in 0.5% methylcellulose. […] Group 6: rabbits were treated for 1 week with subcutaneous tigecycline at the same dose as in Group 4, but were sacrificed 3 hours after administration of the last dose. At that time, blood and infected bone samples were collected and tigecycline concentration was determined. Groups 1 to 5 were left untreated for 2 weeks after treatment phase of the experiment and sacrificed at 8 weeks after infection.
Radiographs of bilateral tibias were taken at initiation of therapy (2 weeks after infection), at the end of antibiotic therapy (6 weeks after infection), and at sacrifice (8 weeks after infection). Radiographs were scored according to a visual scale (Table 1) by three investigators, each blinded to the treatment group, and the grades were averaged.
After sacrifice, gross cultures were performed for right and left tibias. Quantitative counts of S. aureus, in CFUs per gram, of left tibial bone and marrow were determined for all study groups.
Culture Preparation: The bone marrow and the intramedullary canal of bilateral tibias were swabbed with sterile cotton tip applicators for gross cultures analysis of left tibias and quality assurance checks of right tibias. The inoculated applicator was streaked onto blood plates and then placed into 5 ml of sterile TSB. The plates and tubes were then incubated at 37° C. for 24 hours and growth and/or turbidity was recorded.
The bone marrow was placed into a sterile, 50 ml centrifuge tube and weighed. The bone fragments were broken into 0.5 cm^2 chips, placed into a sterile, 50 ml centrifuge tube, and the final product weighed. Normal sterile saline, 0.9%, was added in a 3 to 1 ratio (3 ml saline/gram of bone or marrow) and the suspensions were vortexed for 2 minutes. Six ten-fold dilutions of each suspension were prepared with sterile, normal saline, 0.9%. Twenty-microliter samples of each dilution, including the initial suspension, was plated, in triplicate, onto blood agar plates and incubated at 37° C. for 24 hours. CFUs were counted at the greatest dilution for each tibia sample.

[4] = Adverse events and weight variance in infected treated rabbits; details: infected rabbits after antibiotic treatment
From the text: All rabbits were monitored weekly for weight variance. […] The key for FIGS. 4A and B is as follows: Control=control group, no treatment; Vancomycin=subcutaneous vancomycin treated group; Vanco+Rifampin=subcutaneous vancomycin with oral rifampin treated group; Gar-936=subcutaneous Gar-936 treated group; Gar-936+Rifampin=subcutaneous Gar-936 with oral Rifampin treated group.

[5] = tested on: methicillin-resistant S. aureus; assay: microbe, parasite or virus in culture; type: cell-based, Staphylococcus aureus; details: for MBC / MIC: Staphylococcus aureus; for MBC: read-out: minimum bactericidal concentration (MBC); for MIC: read-out: minimum inhibitory concentration (MIC)
Method: The minimum inhibitory concentrations (MIC) of tigecycline, vancomycin and rifampin were determined using an antibiotic two-fold tube-dilution method. The minimum bactericidal concentrations were also determined. The limits of sensitivity of this method were 25 μg/ml to 0.20 μg/ml.

[6] = tested on: Mycobacterium abscessus; type: in vivo, human; details: human, in vivo
Method: Debridement was accomplished after one year of infection with placement of hardware. […] The amikacin was later stopped due to renal damage. Linezolid and azithromycin were later added to the treatment regimen. The organism was determined to be resistant to moxifloxacin.
The patient presented later with a new vertebral osteomyelitis just above the site of the old infection. A biopsy was performed and it was determined that no additional debridement was needed. […] Tigecycline was administered up to MIC 0.25 micrograms/ml. The patient's white blood cell count was normal while hypogammaglobulinemia was present and lymphocytic function decreased. The patient had also been under treatment with IL-12, but IL-12 was held during antibiotic treatment.

[7] = tested on: M. abcessus; assay: Susceptibility/MIC of patient isolate, compassionate use study; type: cell-based, Mycobacterium abscessus; details: M. abscessus patient isolate
[8] = tested on: A. baumanii; assay: Susceptibility of patient isolate; type: cell-based, Acinetobacter baumannii; details: A. baumanii from patient bone
[9] = average grade, t=14 versus t=56 days
[10] = individual rabbits, left tibia, 8 weeks after infection

C[C@H]1[C@H](NC(=O)/C(=N\OC(C)(C)C(=O)O)c2csc(N)n2)C(=O)N1S(=O)(=O)O [Aztreonam]
adverse event leading to discontinuation [1]: persistent eosinophilia

C[C@@H](O)[C@H]1C(=O)N2C(C(=O)O)=C(S[C@@H]3CN[C@H](C(=O)N(C)C)C3)[C@H](C)[C@H]12 [Meropenem]
adverse event leading to discontinuation [1]: eosinophilia

CN[C@H](CC(C)C)C(=O)N[C@H]1C(=O)N[C@@H](CC(N)=O)C(=O)N[C@H]2C(=O)N[C@H]3C(=O)N[C@H](C(=O)N[C@H](C(=O)O)c4cc(O)cc(O)c4-c4cc3ccc4O)[C@H](O)c3ccc(c(Cl)c3)Oc3cc2cc(c3O[C@@H]2O[C@H](CO)[C@@H](O)[C@H](O)[C@H]2O[C@H]2C[C@](C)(N)[C@H](O)[C@H](C)O2)Oc2ccc(cc2Cl)[C@H]1O [Vancomycin]
antibiotic serum levels (peaks and troughs) [2]: above minimum inhibitory concentrations
radiographic improvement (grade) [3, 9]: 0.5+/−0.2
radiographic improvement (percent) [3, 9]: 25%
percentage of bone samples positive for MRSA ([3]; bone cultures): 18.2%
rabbits/samples positive for MRSA in bone ([3]; bone cultures at sacrifice): 2 out of 11
proportion of positive cultures in marrow ([3]; compared with 0.33 (5/15) in control group): not statistically significantly different from the control group
Counts (CFU/gm) Bone [3, 10]: 270.3 CFU/gm and 1315.8 CFU/gm and 0 CFU/gm (14×)
Counts (CFU/gm) Marrow [3, 10]: 1250 CFU/gm and 0 CFU/gm (15×)
average bacterial concentration of the group ([3]; tibia bone): 1.4×10^2 CFU/gram bone
mean weight gain [4]: 0.39 kg
MIC/MBC ratio ([5]; MRSA study strain): 0.5
MBC ([5]; MRSA): 0.78 µg/mL (≈ 0.538 µM)
MIC ([5]; MRSA): 0.39 µg/mL (≈ 0.269 µM)

NCC[C@H](O)C(=O)N[C@@H]1C[C@H](N)[C@@H](O[C@H]2O[C@H](CN)[C@@H](O)[C@H](O)[C@H]2O)[C@H](O)[C@H]1O[C@H]1O[C@H](CO)[C@@H](O)[C@H](N)[C@H]1O [amikacin, reference compound]
adverse event leading to discontinuation [6]: renal damage

CO[C@@]1(NC(=O)Cc2cccs2)C(=O)N2C(C(=O)O)=C(COC(N)=O)CS[C@@H]21 [cefoxitin, reference compound]
susceptibility of the organism [7]: sensitive

O=C(O)c1cn(C2CC2)c2cc(N3CCNCC3)c(F)cc2c1=O [ciprofloxacin]
susceptibility of the organism [8]: resistant

CO[C@H]1/C=C/O[C@@]2(C)Oc3c(C)c(O)c4c(O)c(c(/C=N/N5CCN(C)CC5)c(O)c4c3C2=O)NC(=O)/C(C)=C\C=C\[C@H](C)[C@H](O)[C@@H](C)[C@@H](O)[C@@H](C)[C@H](OC(C)=O)[C@@H]1C [rifampin]
bacterial outcome in bone and marrow, in words ([3]; end of study, MRSA infected rabbits): bactericidal activity
MIC/MBC ratio ([5]; MRSA study strain): 0.5
MIC ([5]; MRSA, MRSA study strain, inoculum 10^6 CFU/ml): 0.78 µg/mL (≈ 0.948 µM)
MBC ([5]; MRSA study strain, inoculum 10^6 CFU/ml): 1.56 µg/mL (≈ 1.9 µM)

NC[C@H]1O[C@H](O[C@H]2[C@H](O)[C@@H](O[C@H]3O[C@H](CO)[C@@H](O)[C@H](N)[C@H]3O)[C@H](N)C[C@@H]2N)[C@H](N)C[C@@H]1O [tobramycin]
susceptibility of the organism [8]: susceptible
adverse event leading to discontinuation [1]: increased creatinine

gentamicin
susceptibility of the organism [8]: susceptible
